Assays:
[1] = tested on: Trypanosoma brucei rhodesiense; test: Antiprotozoal activity against bloodstream forms of Trypanosoma brucei rhodesiense STIB 900 after 70 hrs by Alamar blue assay; format: functional, organism-based; conditions: STIB 900, 70 h
L6 = test: Cytotoxicity against rat L6 cells; format: cell-based
[2] = Selectivity index, ratio of IC50 for rat L6 cells to IC50 for bloodstream forms of Trypanosoma brucei rhodesiense STIB 900; format: toxicity, cell-based; conditions: read-out: Ratio IC50

| Structure (SMILES) | IC50 [1] [µM] | IC50 (L6) [µM] | selectivity ratio [2] |
| --- | --- | --- | --- |
| C=C(C(=O)O)[C@H]1[C@@H]2C=C(C)[C@@H](O)C[C@H]2[C@](C)(O)C[C@@H]1OC(=O)/C(C)=C\C | 50.5 | > 100 | > 2 |
| C=C(C(=O)O)[C@H]1[C@@H]2C=C(C)[C@@H](O)C[C@@H]2[C@](C)(O)C[C@@H]1OC(=O)/C(C)=C\C | 14.8 | 49 | 3.3 |
| C=C1C(=O)O[C@]23C=C(C)[C@@H](O)C[C@@H]2[C@H](C)C[C@H](OC(=O)/C(C)=C\C)[C@@H]13 | 1.44 | 2.12 | 1.5 |
| C=C1C(=O)O[C@@]23C=C(C)[C@@H](O)C[C@@H]2[C@@H](C)C[C@H](OC(=O)/C(C)=C\C)[C@@H]13 | 0.46 | 1.11 | 2.4 |
| C=C(C(=O)O)[C@H]1[C@@H]2C=C(C)C(=O)C[C@@H]2[C@@H](C)C[C@@H]1OC(=O)/C(C)=C\C | 31.1 | 49.1 | 1.6 |
| C=C(C)C(=O)O[C@H]1C/C(C)=C/C[C@H](O)/C(C)=C\C2OC(=O)C(=C)[C@@H]21 (single isomer, unassigned) | 1.54 | 9.38 | 6.1 |
| C=C1C(=O)OC2/C=C(/C)[C@@H](O)C/C=C(\C)C[C@H](OC(=O)/C(C)=C/C)[C@@H]12 (single isomer, unassigned) | 3.48 | 10.2 | 2.9 |
| Nc1nc(N)nc(Nc2ccc([As]3SCC(CO)S3)cc2)n1 (stereo unspecified) [MELARSOPROL] | – | 29.1 | > 5000 |
| C=C1C(=O)O[C@@H]2/C=C(/C)[C@@H](O)C/C=C(\C)C[C@H](OC(=O)/C(C)=C\C)[C@@H]12 [NOBILIN] | 3.19 | 6.64 | 2.1 |

Source: ChEMBL document CHEMBL3399999, “Anti-trypanosomal cadinanes synthesized by transannular cyclization of the natural sesquiterpene lactone nobilin” (Bioorg Med Chem, 2015)
